Experiments:
[1] = system: MCF-7 cells; test: Hoechst viability assay, MCF-7 breast carcinoma cells; assay type: cell-based, human
Method: (§1) Cells (in quadruplicate) at the specified density were suspended in 200 μL medium supplemented with 10% FCS seeded in 96-well plates for 24 hours, then exposed to the drugs for 72 hours. The viability of the cells was determined by Hoechst fluorescent assay as described by Nudelman et al., 2005. Leukemic cell viability after 72 hours of treatment was determined by an MTT (3-(4,5-dimethylthiazol-2-yl)-2,5-diphenyltetrazolium bromide) assay as described by Levovich et al., 2007.
(§2) IC50 values were determined by linear regression of the percentage of survival following drug titration.

[2] = system: U-251 cells; test: Apoptosis/cell death by annexin V-FITC and propidium iodide FACS, U-251 cells; assay type: cell-based
Method: Cells were seeded in six-well plates (10^5 cells/well) for 24 hours and were then treated as specified, trypsinized, washed with PBS, double-stained with annexin V-FITC (fluorescein isothiocyanate) and propidium iodide, according to the manufacturer's instructions and subjected to flow cytometry analysis (FACScalibur cytometer, Becton Dickinson).

[3] = system: phospho-H2AX (Ser139); test: Phospho-H2AX Western blot, U-251 cells; assay type: cell-based, human; conditions: 60 μM, 0.5, 2 or 24 hours, peak after 2 hours
Method: Cell lysates or acid extracted histones were solubilized in a concentrated (×4) loading buffer (62.5 mM Tris-HCl, pH 6.8, 1% SDS, 10% glycerol v/v, 1% dithiothreitol (DTT) and 0.1 mg/ml bromophenol blue). Proteins (10-40 μg) were run on SDS-PAGE, transferred to a nitrocellulose membrane (Schleicher & Schuell, Germany) and probed with the primary antibodies, followed by incubation with a horseradish peroxidase (HRP)-goat anti-rabbit IgG or HRP-rabbit anti-mouse IgG as secondary antibodies. HRP bound to the secondary antibodies was visualized by the enhanced chemiluminescence method using the Western Blotting Luminol reagent (Santa Cruz, Calif., USA). The membrane was exposed for 5 minutes to Chemiluminescence BioMax light film (Kodak, USA) and the intensity of the bands was measured with a VersaDoc instrument with a Quantityl program (Bio-Rad, USA). The fold increase of each specific protein was determined by the ratio of band intensities of treated and untreated cells, normalized to loading control (actin or total histone H3).

[4] = system: U-251 cells; test: Nitric oxide production assay, U-251 cells; assay type: cell-based, human; conditions: 50 μM (mixture 50 μM + 50 μM), 1 hour treatment
Method: U251 cells (5×10^4) were seeded in 24 well plates, and after 24 hours washed and resuspended in PBS. […] Fluorescence was measured with excitation/emission filters of 390/440 nm in a FluoStar fluorimeter. The concentration of nitrate was determined by subtracting the nitrite concentration from the total concentration of nitrite+nitrate.

[5] = system: U-251 cells; test: Cell cycle analysis (propidium iodide flow cytometry), U-251 cells; assay type: cell-based, human
Method: Cells (4×10^5) were seeded in 35 mm culture dishes and after 24 hours were starved in medium without serum for an additional 24 hours, and then treated with the drug for an additional 24 hours. The cells were then trypsinized to a single cell suspension in PBS, washed, and resuspended in PBS at a concentration of 10^6 cells/mL. The cells were fixed with 70% ethanol for 30 minutes at 4° C., centrifuged and resuspended in 1 ml PBS containing 0.1% Tween 20 and 0.05% bovine serum albumin (BSA). RNase free of DNase was added, and the cell suspension (10^6 cells) was incubated at […] for 30 minutes. The cell suspension was then chilled on ice to a temperature in the range of 2 to 8° C. Propidium iodide (50 μg/mL) was added to the cell suspension, which was than kept in the dark. Red fluorescence (>630 nm) was analyzed on the flow cytometer.

[6] = system: kinases which phosphorylate acyclovir; test: Acyclovir phosphorylation (viral thymidine kinase activity) in 4T1 cell extracts; assay type: cell-based, murine; conditions: 4T1 cells, 24 hours, 40 μM
Method: The mammalian thymidine kinase (TK) has a narrow specificity and acts only on thymidine. […] The lysates obtained were kept at −70 ° C. until analyzed either spectroscopically or by RT-PCR. […] The ADP is converted to ATP by pyruvate kinase when it hydrolyzes phosphoenolpyruvate (PEP) to pyruvate. Lactate dehydrogenase then converts pyruvate to lactate and NADH to NAD^+. The decrease in fluorescence emitted by NADH (excitation/emission of 320/460 nm) during 10 cycles, each lasting 1 minute, were monitored using a FluoStar fluorometer. The reaction velocity was determined by the slope of the fluorescence vs. time.

[7] = system: rat primary cardiomyocytes; test: ROS production (DCF-DA) in rat primary cardiomyocytes; assay type: cell-based
Method: Neonatal rat ventricular cardiomyocytes were isolated and cultured in collagen coated culture dishes as described by Shalitin et al., 1996. Growth medium contained DMEM:Ham's F12 (1:1), fetal calf serum (10%) and antibiotics. Treatment was administered to spontaneously beating cardiomyocytes 48 hours after plating.

[8] = system: 4T1 cells; test: Hoechst viability assay, 4T1 breast carcinoma cells (Dox combination); assay type: cell-based, murine; conditions: Mus musculus, 72 hours, 3 experiments
Method: as §1, §2
The combination index for drug interaction was calculated by Chou's Median Effect Analysis (MEA) [Chou, 2006]. The combination index (CI) was defined as CI=D1/(DM)1+D2/(DM)2, where D1 and D2 are the doses of drug 1 and drug 2, respectively, (DM)1 and (DM)2 are the doses of drug 1 and drug 2 and their mixture (in a specified ratio) required to produce a median effect, e.g., IC50. CI<1, =1 or >1 indicates synergism, additive effect, and antagonism respectively.

[9] = system: 3LLD122 Lewis lung carcinoma; test: Metastatic Lewis lung carcinoma (3LL) model; assay type: in vivo, mice; conditions: Compound 6 30 mg/kg, Compound 7 25 mg/kg, per os thrice per week, 21 days; p<0.02 vs acyclovir
Method: Female C57/BL mice, 7-10 weeks old, were acclimated for ten days. All in vivo experiments were conducted according to the NIH Laboratory Animal Care Guidelines and in accordance with the guidelines and approval of the Tel Aviv University Committee for Animal Experimentation.
The subclone 3LLD122 of 3LL used in the study was selected for its aggressive and invasive nature. […] The animals were sacrificed after 21 days of treatment, their lungs were weighed, stained with Bouin's fixative and the metastatic lesions were scored double-blindly.

[10] = system: 4T1 murine breast carcinoma; test: Metastatic 4T1 breast carcinoma model; assay type: in vivo, mice; conditions: 25 mg/kg, 4T1 model, p<0.05
Method: The syngeneic murine breast carcinoma metastatic model was performed with 8-10 weeks old BALB-c mice implanted with 4T1 cells. When the tumor volume reached 75-180 mm^3 (after ˜10 days), treatment was initiated for an additional 21 days. At termination, the animals were sacrificed and their lungs removed, stained with Bouin's solution, and lung lesions were scored under an illuminated magnifying glass.

CCCC(CCC)C(=O)Nc1nc2c(ncn2COCCOC(=O)C(CCC)CCC)c(=O)[nH]1 [Compound 6, N-valproyl-9-(2-valproyloxy)ethoxymethylguanine]
effect of N-acetylcysteine (NAC) on the activity of the compound ([1]; 400 μM NAC, FIG. 3b): did not reduce the activity | IC50 fold lower than that of VA ([1]; MCF-7 cells, Hoechst): over 20 fold | IC50 fold lower than that of the mixture of VA and acyclovir ([1]; MCF-7 cells, Hoechst, acyclovir:VA 1:2): over 50 fold | mortality at 50 µM ([2]; Homo sapiens, U-251 glioblastoma cells, 50 μM, 24 hours (untreated 9%)): 29% | percentage of apoptotic cells ([2]; U-251 cells, 24 hours): increased the percentage of apoptotic cells in a dose dependent manner | level of phosphorylated H2AX [3]: induced an increase in the level of phosphorylated H2AX | NO production [4]: increased NO production in U-251 cells considerably | Percentage of cells in G0-G1 stage ([5]; 25 μM, 24 hours): 48.5% | Percentage of cells in G2-M stage ([5]; 25 μM, 24 hours): 33.9% | Percentage of cells in S stage ([5]; 25 μM, 24 hours): 17.5% | Percentage of cells in G0-G1 stage ([5]; 50 μM, 24 hours): 77.1% | Percentage of cells in G2-M stage ([5]; 50 μM, 24 hours): 13.3% | Percentage of cells in S stage ([5]; 50 μM, 24 hours): 9.5% | cell-cycle arresting concentration, fold lower than acyclovir and valproic acid ([5]; 25-50 μM vs 1 mM): at least 20 fold | phase of cell-cycle arrest ([5]; 25-50 μM, 24 hours): G0-G1 phase | rate of acyclovir phosphorylation (kinase activity) [6]: increased the rate of acyclovir phosphorylation in a significant and reproducible manner | production of reactive oxygen radicals (ROS) ([7]; 4 hours): did not increase production of reactive oxygen radicals | effect on ROS production induced by Dox ([7]; combined with 2 μM Dox): prevented the formation of ROS | IC50 [8]: 33.7 µM | number of lung macro-lesions (anti-metastatic activity) [9]: significant anti-metastatic activity | lung weight [10]: reduction in lung weight | number of observed lung lesions [10]: reduction in the number of observed lung lesions

Reference: patent publication US9334272B2, “Derivatives of purinic and pyrimidinic antiviral agents and use thereof as potent anticancer agents” (Ramot at Tel-Aviv University Ltd., priority 2007, dated 2016)
